Measurements reported in patent publication US20030148377A1, “Binding compounds and methods for identifying binding compounds” (priority 2000, published 2003).

How the values were obtained:
Type in all cases: cell-based
[1] = test system: human IL-2 promoter luciferase reporter in Jurkat cells; experiment: IL-2 reporter gene analysis, PMA plus ionomycin (pathway that circumvents ZAP-70); details: 10 μM peptide; phorbol ester plus ionomycin; FIG. 2G
Procedure: (§1) Penetratin-containing peptides (FIG. 2A; peptide 7 (SEQ ID NO: 11) or peptide 8 (SEQ ID NO: 12)) were dissolved in DMSO and diluted to 20 μM in 500 μl of serum-free RPMI1640 medium. Ten million Jurkat cells, suspended in 500 μl of serum-free RPMI1640, were added to the peptide solutions for diluted DMSO control and incubated for 30 min at 37° C. Peptide-pretreated cells were treated with 1 μg of the anti-CD3ε mAb at 4° C. for 10 min, followed by another 10 min incubation in the presence of 5 μg of rabbit anti-mouse Ig. Cells were activated by shifting the temperature to 37° C. for 2 min and subsequently lysed in 1% NP40 lysis buffer. […] Luciferase activities from lysates were measured using a Dual-Luciferase Reporter System and Monolight 2010 luminometer.
(§2) Jurkat cells were electroporated at 250V, 800 μF settings (Invitrogen Life Technologies, Carlsbad, Calif.), in the presence of 10 μg of plasmid carrier DNA (pCAGGS vector), 100 ng of Renilla luciferase control vector (pRL null), and 2.5 μg of a luciferase reporter gene whose transcriptional activity is controlled by the human IL-2 promoter (IL-2-Luc). […] Luciferase activities from lysates were measured using a Dual-Luciferase Reporter System (Promega, Madison, Wis.) and Monolight 2010 luminometer (Analytical Luminescence Laboratory, San Diego, Calif.). […]

[2] = test system: Tyr phosphorylation of PLCγ1 or LAT in Jurkat cells; experiment: Anti-CD3-dependent Tyr phosphorylation of PLCγ1 or LAT in Jurkat cells; details: CD3ε cross-linking
Procedure: Penetratin-containing peptides (FIG. 2A; peptide 7 (SEQ ID NO: 11) or peptide 8 (SEQ ID NO: 12)) were dissolved in DMSO and diluted to 20 μM in 500 μl of serum-free RPMI1640 medium. Ten million Jurkat cells, suspended in 500 μl of serum-free RPMI1640, were added to the peptide solutions for diluted DMSO control and incubated for 30 min at 37° C. Peptide-pretreated cells were treated with 1 μg of the anti-CD3ε mAb at 4° C. for 10 min, followed by another 10 min incubation in the presence of 5 μg of rabbit anti-mouse Ig. Cells were activated by shifting the temperature to 37° C. for 2 min and subsequently lysed in 1% NP40 lysis buffer. Lysates were immunoprecipitated with either the 4G10 anti-phosphotyrosine mAb (FIG. 2B; lanes 1-5), or with anti-PLCγ1 antibody (FIG. 2B; lanes 6-10), or with anti-LAT antibody (FIG. 2D; lane 11-15), and immunoblotted with the HRP-conjugated anti-phosphotyrosine Ab, RC20H. Lanes 1, 2, 6, 7, 11 and 12 corresponded to untreated Jurkat cells; lysates in lanes 3, 8, and 13 were prepared from cells treated with DMSO; lysates in lanes 4, 9, and 14 were prepared from cells treated with peptide 7; lysates in lanes 5, 10, and 15 were prepared from cells treated with peptide 8. (−) indicates nonstimulated cells; (+) indicates stimulation by CD3ε cross-linking. Each blot was stripped and reprobed with anti-PLCγ1 antibody (FIG. 2C) or anti-LAT antibody (FIG. 2E). Jurkat cells were electroporated in the presence of 10 μg of plasmid carrier DNA, 100 ng of Renilla luciferase control vector, and 2.5 μg of a luciferase reporter gene. Transfectants were treated with 10 μM of peptide 7, peptide 8, or DMSO as described above. Treated cells were stimulated with plate-bound anti-CD3ε mAb and 10 ng/ml of PMA (phorbol 12-myristate-13-acetate; FIG. 2F), or 10 ng/ml of PMA plus 2 μM of ionomycin (FIG. 2G) at 37° C. for 2 hr. Luciferase activities from lysates were measured using a Dual-Luciferase Reporter System and Monolight 2010 luminometer. […]

[3] = test system: human IL-2 promoter luciferase reporter in Jurkat cells; experiment: IL-2 reporter gene analysis, anti-CD3ε mAb plus PMA (ZAP-70-dependent pathway); details: 10 μM peptide; anti-CD3 plus phorbol ester as stimulant, 2 hr; FIG. 2F
Procedure: as §1, §2

Q: Which results are given for “peptide 8: chimeric peptide with penetratin at the N terminus and peptide 4 at the C terminus (RQIKIWFQNRRMKWKKKLILFLLLL)”?
A: effect on IL-2 reporter gene expression (in words) [1]: no effect on gene expression; effect on anti-CD3-stimulated Tyr-phosphorylation of most proteins (in words) ([2]; 30 min peptide pretreatment at 37° C., anti-phosphotyrosine blot, FIG. 2B): little effect on most of these proteins; Tyr phosphorylation of LAT (in words) ([2]; anti-LAT immunoprecipitates, FIG. 2D lane 15): reduced the Tyr phosphorylation; Tyr phosphorylation of PLCγ1 (in words) ([2]; anti-PLCγ1 immunoprecipitates, FIG. 2B lane 10): reduced the Tyr phosphorylation of PLCγ1; inhibition of gene expression (IL-2 reporter) [3]: more than 70%
